Data as given in the NIST ThermoML archive (doi:10.1016/j.fluid.2011.09.014).
Numbers after ± are expanded uncertainties.

Experiments:
[1] = xn = mol fraction of the nth substance listed; conditions: 293.15 K; 101 kPa; Liquid; Vibrating tube method; x2 = 0.75
[2] = refractive index (Na D-line) (dimensionless); xn = mol fraction of the nth substance listed; conditions: 294.15 K; 101 kPa; Liquid; Standard Abbe refractometry; x2 = 0.75
[3] = Liquid; for mass density: 101.33 kPa, Vibrating tube method; for Normal boiling temperature: Closed cell (Static) method
[4] = refractive index (Na D-line) (dimensionless); conditions: 101.33 kPa, Liquid, Standard Abbe refractometry

Row | mass density [1] | refractive index [2] | mass density ([3]; 298.15 K) | Normal boiling temperature [3] | refractive index ([4]; 293.15 K) | refractive index ([4]; 298.15 K) | mass density ([3]; 293.15 K) | SMILES
1 | 806.5 ± 0.5 kg/m3 | 1.4118 ± 0.0005 |  |  |  |  |  | CC(=O)CC(C)CC(C)C (configuration not stated) [4,6-dimethyl-2-heptanone] + CC(C)CC(=O)CC(C)C
2 |  |  | 1044.5 ± 0.6 kg/m3 | 117.90 ± 0.2 °C | 1.3721 ± 0.0004 |  |  | CC(=O)O [acetic acid]
3 |  |  | 719 ± 0.4 kg/m3 | 68.20 ± 0.2 °C |  | 1.3655 ± 0.0004 |  | CC(C)OC(C)C [diisopropyl ether]
4 |  |  |  | 100.90 ± 0.2 °C | 1.3711 ± 0.0006 |  | 1218.5 ± 1.4 kg/m3 | O=CO [formic acid]
5 |  |  |  | 149.10 ± 0.2 °C | 1.4025 ± 0.0006 |  | 875.9 ± 0.8 kg/m3 | CCCCCOC(C)=O [pentyl ethanoate]
6 |  |  | 988.1 ± 0.5 kg/m3 | 141.10 ± 0.2 °C | 1.3808 ± 0.0004 |  |  | CCC(=O)O [propanoic acid]
